Test results: patent publication US7928187B2, “Neuropeptide alarin” (Austria Wirtschaftsservice Gesellschaft mit beschrankter …, priority 2005, dated 2011)
Ends that are not written are not given here.

How the values were obtained:
CNS = assay: Functional assays in the CNS with murine alarin peptides; assay type: in vivo, mice (C57Bl/6); details: amidated synthetic murine peptides 1-25 and 3-25
Protocol: (§1) Intact adult male mice (C57Bl/6) were treated by a single injection into the lateral ventricles with either artificial cerebrospinal fluid (aCSF), alarin 1-25 (A1), alarin 3-25 (A3). Each treatment was given in an equimolar dose of 5 nmol. Body weight and food weight were measured at 1 hr, 2 hr, and 24 hr post injection. (Shown here as percent change in body weight from baseline).
as §1, with “grams of food consumed).” for “percent change in body weight from baseline).”
(§2) Intact adult male mice (C57Bl/6) were treated by a single injection into the lateral ventricles with either artificial cerebrospinal fluid (aCSF), alarin 1-25 (A1), alarin 3-25 (A3). Each treatment was given in an equimolar dose of 5 nmol. Blood was collected 30 min after injection and serum was assayed for LH content. (LH levels shown here in ng/ml).

[1] = Luteinising hormone (LH) level after injection into the lateral ventricles; assay type: in vivo, mice (C57Bl/6); details: 5 nmol, single injection into lateral ventricles, blood collected 30 min after injection, adult male mice
Protocol: as §2

[2] = Food intake after injection into the lateral ventricles; assay type: in vivo, mice (C57Bl/6); details: 5 nmol, single injection into lateral ventricles, one hour after injection, adult male mice
Protocol: as §1, with “grams of food consumed).” for “percent change in body weight from baseline).”

[3] = Body weight after injection into the lateral ventricles; assay type: in vivo, mice (C57Bl/6); details: 5 nmol, single injection into lateral ventricles, one hour after injection, adult male mice
Protocol: as §1

CD-1 mouse skin = assay: Inflammatory oedema formation (plasma extravasation) in mouse dorsal skin; assay type: in vivo
Protocol: Experiments involving mice were carried out under the Animals (Scientific Procedures) Act, 1986. Normal female CD-1 mice (22-27 g, 8-12 weeks) were obtained from Charles River, U.K. All mice were maintained on normal diet, with free access to food and water, in a climatically controlled environment. Animals were anaesthetized with urethane (25% w v-1; 2.5 g kg-1 i.p.) and the dorsal skin was shaved. Injection sites were chosen according to a randomized site pattern on the dorsal skin of the anaesthetized mouse. Agents were from Sigma, Poole, U.K., unless specified. Alarin (1-25)-amide (murine) alarin (3-32)-amide (murine) were custom synthesized by NeoMPS Inc. (Strasbourg, France). All peptides were dissolved in distilled water. The stock solutions (10 nM) were stored at −20° C. and further diluted in Tyrode's solution (137 mM NaCl, 2.7 mM KCl, 0.5 mM MgCl2, 0.4 mM NaH2PO4, 11.9 mM NaHCO3, 5.6 mM glucose) just prior use.
Plasma extravasation was used as an index of inflammatory oedema formation and measured as previously described (Cao et al, 1999). Briefly, test agents were diluted in Tyrode's solution and stored on ice. […] The amount of plasma extravasated (μl g-1 tissue) was calculated by comparing the amount of radioactivity in each skin site with that in 100 μl plasma from the same animal.

GALR2 receptor = molecular target: T1, GALR2 receptor (Homo sapiens, UniProt O43603); assay: Microphysiometry, extracellular acidification rate, SY5Y cells expressing GALR2; assay type: cell-based; details: human neuroblastoma cells SY5Y expressing GALR2; alarin 100 nM
T1 construct: expressed in transfected cells; host or cells: SH-SY5Y human neuroblastoma cells
T1 sequence (O43603 1-387): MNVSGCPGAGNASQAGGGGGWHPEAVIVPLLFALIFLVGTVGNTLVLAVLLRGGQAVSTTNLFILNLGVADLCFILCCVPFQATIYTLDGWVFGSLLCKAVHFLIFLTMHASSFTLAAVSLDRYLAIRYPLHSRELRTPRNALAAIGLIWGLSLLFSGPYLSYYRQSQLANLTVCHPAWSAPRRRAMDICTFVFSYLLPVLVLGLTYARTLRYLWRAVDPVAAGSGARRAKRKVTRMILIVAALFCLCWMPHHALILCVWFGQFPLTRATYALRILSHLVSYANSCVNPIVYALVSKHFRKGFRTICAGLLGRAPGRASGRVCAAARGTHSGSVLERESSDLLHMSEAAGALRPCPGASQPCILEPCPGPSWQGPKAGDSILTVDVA

galanin receptors [4] = assay: Microphysiometry on galanin receptor expressing cells, receptor activation; assay type: cell-based, human; details: binding assays and microphysiometry on galanin receptor expressing cells
Protocol: After reaching confluency the cells are harvested and seeded into 3.0 μm pore transwells (Corning Costar) held in 12 well plates one day before the experiment. The cells are allowed to settle down in the culture medium and cultured overnight in serum-free growth-medium. The ECAR of cells is determined by using a Cytosensor Microphysiometer (Molecular Devices). A capsule spacer and a capsule insert are assembled in the transwells, transferred into a sensor chamber and kept in DMEM without sodium bicarbonate throughout the entire experiment at 37° C. The running medium is pumped through each sensor chamber at 50 μl min^−1. A typical pumping cycle of 120 s consists of a flow period of 90 s, followed by a flow-off period of 30 s. During flow-off periods, protons released from the cells accumulate in the sensor chamber, and the rate of proton release is quantified by fitting the sensor data to a straight line with the least-squares fit to the slope of the pH profile. Agonists or other agents are diluted into running medium and perfused through a second fluid path. […]
SH-SY5Y/GalR1 and SH-SY5Y/GalR2 cells (Berger 2004) were seeded into 3.0-μM pore size Transwells (Corning Costar, Cambridge, Mass., USA). The extracellular acidification rate was determined using a cytosensor microphysiometer (Molecular Devices, Ismanning, Germany) as previously reported (Lang et al., 2001).

galanin receptors [5] = assay: Receptor binding assay, displacement of radiolabeled GAL from membrane preparations; details: binding assays and functional microphysiometry, 50 pM [125I]GAL
Protocol: Membrane preparations and radioligand binding assays were performed according to Berger et al. (Berger et al., 2002). Displacement of radiolabeled GAL binding to membrane preparations (15 μg) was carried out in duplicates in a total volume of 120 μl of binding buffer containing 50 pM [125I]GAL (2,000 Ci/mmol; Amersham Pharmacia Biotech (Little Chalfont, UK) and different concentrations of synthetic murine alarin (1-25-amide) and alarin (3-25-amide).

Row | Substance | activity in the CNS (CNS) | plasma LH levels [1] | food intake [2] | body weight [3] | potency in inhibition of oedema formation in the skin, alarin 1-25 compared with alarin 3-25 (CD-1 mouse skin; amidated synthetic murine peptides) | inhibition of inflammatory oedema (CD-1 mouse skin; co-injection with substance P (300 pmol) and CGRP (10 pmol), intradermal, murine dorsal skin) | change in extracellular acidification (GALR2 receptor) | activation of galanin receptors (galanin receptors [4]) | binding to galanin receptors (galanin receptors [5])
1 | Alarin 3-25: amidated synthetic murine alarin peptide 3-25 (AHRSSPFPPRPTRAGRETQLLRS-NH2) | active | significant increase | significant decrease | significant reduction | – | – | – | – | –
2 | Alarin 1-25: amidated synthetic murine alarin peptide 1-25 (APAHRSSPFPPRPTRAGRETQLLRS-NH2) | only alarin 3-25 was active in the CNS | – | – | – | more potent | – | – | – | –
3 | APAHRSSTFPKWVTKTERGRQPLRS (listed as Homo sapiens) [alarin, novel neuropeptide, splice variant of GALP mRNA] | – | – | – | – | – | inhibition of inflammatory oedema | No change | not able to activate these receptors | can be excluded
